pEC50: −log10 of the molar value. Like-named read-outs stand apart in the source and are kept apart here. Bridge positions count the residues as written; N and C are the ends. Square brackets hold non-standard residues; d marks the D form. Side chains are listed from the residue outwards. Peptide text beside a SMILES is read from it. I, II: the chains in the order shown. dAgb = N=C(N)NCC[C@@H](N)C(=O)O; dAgp = N=C(N)NC[C@@H](N)C(=O)O; dNle = CCCC[C@@H](N)C(=O)O; dOrn = NCCC[C@@H](N)C(=O)O; Api = NC1(C(=O)O)CCNCC1
Assays:
[1] = target: T1, human kappa opioid receptor (hKOR) (Homo sapiens, UniProt P41145); assay: NFAT-luciferase reporter assay in HEK-293 cells transfected with human kappa opioid receptor and chimeric G-protein; format: cell-based; details: for pEC50: read-out: hKOR EC50
T1 construct: expressed in transfected cells; host or cells: HEK-293 cells (ATCC), transient transfection with pcDNA3-hOPRK1

[2] = target: T2, mouse kappa opioid receptor (mKOR) (Mus musculus, UniProt P33534); assay: Inhibition of forskolin-stimulated cAMP production in R1.G1 cells (TR-FRET cAMP immunoassay); format: cell-based; details: for EC50: mKOR EC50 (nM); for EC50 / pEC50: inhibition of forskolin-stimulated cAMP; for pEC50: read-out: mKOR EC50
T2 construct: a mouse thymoma cell line that expresses only the kappa-opioid receptor and no other opioid receptor subtype; host or cells: R1.G1 mouse thymoma cells

[3] = percent maximal activation compared to full induction by known kappa agonists
[4] = HEK293, percent maximal activation compared to full induction by known kappa agonists, read-out: hKOR Efficacy(%)
[5] = R1.G1 cells, read-out: mKOR Efficacy(%)
[6] = transfected HEK-293 cells, luciferase reporter
[7] = read-out: mKOR Efficacy(%), R1.G1 cells

T2 sequence (P33534 whole entry): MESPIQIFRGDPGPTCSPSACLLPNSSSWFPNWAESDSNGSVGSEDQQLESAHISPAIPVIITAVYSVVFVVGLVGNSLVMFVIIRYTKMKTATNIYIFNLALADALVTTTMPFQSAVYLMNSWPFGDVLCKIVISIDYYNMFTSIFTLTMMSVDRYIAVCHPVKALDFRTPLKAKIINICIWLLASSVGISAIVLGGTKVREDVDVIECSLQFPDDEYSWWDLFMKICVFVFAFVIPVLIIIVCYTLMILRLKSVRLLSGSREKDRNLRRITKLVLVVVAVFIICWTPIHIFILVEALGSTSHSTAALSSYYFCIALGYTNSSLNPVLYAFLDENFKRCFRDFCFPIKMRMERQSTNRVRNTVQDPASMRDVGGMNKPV
T1 sequence (P41145 whole entry): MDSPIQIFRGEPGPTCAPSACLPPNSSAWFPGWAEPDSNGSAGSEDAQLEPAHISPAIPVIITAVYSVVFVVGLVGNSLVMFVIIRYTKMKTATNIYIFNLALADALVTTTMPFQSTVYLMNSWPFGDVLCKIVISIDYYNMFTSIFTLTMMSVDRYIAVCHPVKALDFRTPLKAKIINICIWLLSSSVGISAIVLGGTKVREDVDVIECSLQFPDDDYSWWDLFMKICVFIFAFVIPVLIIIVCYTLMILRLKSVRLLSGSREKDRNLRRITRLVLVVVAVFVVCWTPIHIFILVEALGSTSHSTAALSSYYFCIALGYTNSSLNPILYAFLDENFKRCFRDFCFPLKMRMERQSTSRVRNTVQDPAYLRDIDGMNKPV

CC(C)C[C@@H](NC(=O)[C@@H](Cc1ccccc1)NC(=O)[C@H](N)Cc1ccccc1)C(=O)N[C@H](CCCCN)C(=O)N1CCN(C(=O)c2ccccc2)CC1 [Compound 33, D-Phe-D-Phe-D-Leu-D-Lys-[phenyl(piperazin-1-yl)methanone amide]]
hKOR Efficacy(%) [1, 3]: 94% | mKOR Efficacy(%) ([2]; R1.G1 cells): 92%

CNCCC[C@@H](NC(=O)[C@@H](CC(C)C)NC(=O)[C@@H](Cc1ccccc1)NC(=O)[C@H](N)Cc1ccccc1)C(=O)N1CCCNCC1 [Compound 23, D-Phe-D-Phe-D-Leu-(-Me)D-Orn-[homopiperazine amide]]
mKOR Efficacy(%) ([2]; R1.G1 cells): 95%

Cc1cnc(CNC(=O)[C@@H](CCCCN)NC(=O)[C@@H](CC(C)C)NC(=O)[C@@H](Cc2ccccc2)NC(=O)[C@H](N)Cc2ccccc2)cn1 [Compound 38]
Emax [1, 4]: 100% | Emax [2, 5]: 87%

CC(C)C[C@@H](NC(=O)[C@@H](Cc1ccccc1)NC(=O)[C@H](N)Cc1ccccc1)C(=O)N[C@H](CCCCN)C(=O)N1CCN(c2ncccn2)CC1 [Compound 26, D-Phe-D-Phe-D-Leu-D-Lys-[2-(piperazin-1-yl)pyrimidine amide]]
hKOR Efficacy(%) [1, 3]: 98% | mKOR Efficacy(%) ([2]; R1.G1 cells): 78%

CC(C)C[C@@H](NC(=O)[C@@H](Cc1ccccc1)NC(=O)[C@H](N)Cc1ccccc1)C(=O)N[C@H](CCCNC(C)C)C(=O)N1CCC(N)(C(=O)O)CC1 [Compound 20, D-Phe-D-Phe-D-Leu-(δ-iPr)D-Orn-[omega(4-Aminopiperidine-4-carboxylic acid)]-OH]
Emax [1, 4]: 97% | pEC50 [1, 6]: 9.82 | mKOR Efficacy(%) ([2]; R1.G1 cells): 92%

CC(C)C[C@@H](NC(=O)[C@@H](Cc1ccccc1)NC(=O)[C@H](N)Cc1ccccc1)C(=O)N[C@H](CCCNC(C)C)C(=O)N1CCCN(C(=N)N)CC1 [Compound 22, D-Phe-D-Phe-D-Leu-(δ-iPr)D-Orn-[4-Amidinohomopiperazine amide]]
mKOR Efficacy(%) ([2]; R1.G1 cells): 97%

CC(C)C[C@@H](NC(=O)[C@@H](Cc1ccccc1)NC(=O)[C@H](N)Cc1ccccc1)C(=O)N[C@H](CCCN)C(=O)N1CCC(CC(N)C(=O)O)CC1 (stereo partly drawn) [Compound 7, D-Phe-D-Phe-D-Leu-D-Orn-[ω(D/L-2-Amino-3-(4-N-piperidinyl)propionic acid)]-OH]
hKOR Efficacy(%) [1, 3]: 104% | pEC50 [1, 6]: 9.85 | mKOR Efficacy(%) ([2]; R1.G1 cells): 102%

CC(C)C[C@@H](NC(=O)[C@@H](Cc1ccccc1)NC(=O)[C@H](N)Cc1ccccc1)C(=O)N[C@H](CCNC(=N)N)C(=O)NC1(C(=O)O)CCN(C(=O)[C@@H](CCNC(=N)N)NC(=O)[C@@H](CC(C)C)NC(=O)[C@@H](Cc2ccccc2)NC(=O)[C@H](N)Cc2ccccc2)CC1 [Compound 51, 1N,4N-bis-(D-Phe-D-Phe-D-Leu-D-Nar)-4amino-4carboxylic piperidine] (H-[dF][dF][dL][dAgb][Api]([dAgb-dL-dF-dF])-OH)
EC50 ([2]; R1.G1 cells): 95.8 nM | Emax [2, 7]: 60%

CCCC[C@@H](NC(=O)[C@@H](Cc1ccccc1)NC(=O)[C@H](N)Cc1ccccc1)C(=O)N[C@H](CCCNC(=N)N)C(=O)N1CCC[C@@H]1C(=O)O [Compound 3, D-Phe-D-Phe-D-Nle-D-Arg-D-Pro-OH] (H-[dF][dF][dNle][dR][dP]-OH; N-terminus assumed)
mKOR Efficacy(%) ([2]; R1.G1 cells): 88%

CC(C)C[C@@H](NC(=O)[C@@H](Cc1ccccc1)NC(=O)[C@H](N)Cc1ccccc1)C(=O)N[C@H](CCCCN)C(=O)NCc1ccc(C(F)(F)F)nc1 [Compound 35, D-Phe-D-Phe-D-Leu-D-Lys-[6-trifluoromethyl-3-aminomethylpyridine amide]]
hKOR Efficacy(%) [1, 3]: 95% | mKOR Efficacy(%) ([2]; R1.G1 cells): 85%

CC(C)C[C@@H](NC(=O)[C@@H](Cc1ccccc1)NC(=O)[C@H](N)Cc1ccccc1)C(=O)N[C@H](CCCN)C(=O)NCCCC[C@H](NC(=O)[C@H](N)CCCN)C(=O)O [Compound 42]
Emax [1, 4]: 95% | pEC50 [1, 6]: 9.57 | pEC50 ([2]; R1.G1 cells): 9.62 | Emax [2, 5]: 97%

CC(C)C[C@@H](NC(=O)[C@@H](Cc1ccccc1)NC(=O)[C@H](N)Cc1ccccc1)C(=O)N[C@H](CCCCN)C(=O)N1CCN(c2ccccn2)CC1 [Compound 28, D-Phe-D-Phe-D-Leu-D-Lys-[1-(pyridin-2-yl)piperazine amide]]
hKOR Efficacy(%) [1, 3]: 100% | mKOR Efficacy(%) ([2]; R1.G1 cells): 89%

CC(C)C[C@@H](NC(=O)[C@@H](Cc1ccccc1)NC(=O)[C@H](N)Cc1ccccc1)C(=O)N[C@H](CCCCN)C(=O)N1CCN(c2nccs2)CC1 [Compound 29, D-Phe-D-Phe-D-Leu-D-Lys-[2-(piperazin-1-yl)thiazole amide]]
hKOR Efficacy(%) [1, 3]: 92% | mKOR Efficacy(%) ([2]; R1.G1 cells): 85%

CC(C)C[C@@H](NC(=O)[C@@H](Cc1ccccc1)NC(=O)[C@H](N)Cc1ccccc1)C(=O)N[C@H](CCCN)C(=O)NCCN1CCN(CC(=O)O)CC1 [Compound 1, D-Phe-D-Phe-D-Leu-D-Orn-[4-(2-aminoethyl)-1-carboxymethyl-piperazine]-OH]
hKOR Efficacy(%) [1, 3]: 102% | pEC50 [1, 6]: 9.31 | mKOR Efficacy(%) ([2]; R1.G1 cells): 98%

CC(C)C[C@@H](NC(=O)[C@@H](Cc1ccccc1)NC(=O)[C@H](N)Cc1ccccc1)C(=O)N[C@@H]1CCCCNC(=O)CNC(=O)[C@H](NC(=O)[C@@H](CC(C)C)NC(=O)[C@@H](Cc2ccccc2)NC(=O)[C@H](N)Cc2ccccc2)CCCCNC(=O)CNC1=O [Compound 52, D-Phe-D-Phe-D-Leu-(D-Lys-GlyLactam)2-D-Leu-D-Phe-D-Phe] (I: H-[dF][dF][dL][dK]G / II: H-[dF][dF][dL][dK]G; amide I:4-II:C, I:C-II:4 (inferred); N-terminus assumed)
Emax [2, 7]: 76%

CC(C)C[C@@H](NC(=O)[C@@H](Cc1ccccc1)NC(=O)[C@H](N)Cc1ccccc1)C(=O)N[C@H](CCCCN)C(=O)N1CCS(=O)(=O)CC1 [Compound 34, D-Phe-D-Phe-D-Leu-D-Lys-[thiolmorpholine-1,1-dioxide amide]]
hKOR Efficacy(%) [1, 3]: 103% | mKOR Efficacy(%) ([2]; R1.G1 cells): 89%

CC(C)C[C@@H](NC(=O)[C@H](N)Cc1ccccc1)C(=O)N[C@H](CCCN)C(=O)N[C@H](CCCCNC(=O)[C@@H](CCCN)NC(=O)[C@@H](CC(C)C)NC(=O)[C@@H](Cc1ccccc1)NC(=O)[C@H](N)Cc1ccccc1)C(=O)O [Compound 47]
EC50 ([2]; R1.G1 cells): 0.05 nM | Emax [2, 7]: 91%

CC(C)C[C@@H](NC(=O)[C@@H](Cc1ccccc1)NC(=O)[C@H](N)Cc1ccccc1)C(=O)N[C@H](CCCN)C(=O)NCCCC[C@H](NC(=O)[C@@H](CCCN)NC(=O)[C@@H](CC(C)C)NC(=O)[C@@H](Cc1ccccc1)NC(=O)[C@H](N)Cc1ccccc1)C(N)=O [Compound 43] (H-[dF][dF][dL][dOrn]K([dOrn-dL-dF-dF])-NH2)
Emax ([1]; HEK293, read-out: hKOR Efficacy(%), percent maximal activation compared to full induction by known kappa agonists): 94% | EC50 ([1]; hKOR EC50 (nM), transfected HEK-293 cells, luciferase reporter): 0.13 nM | EC50 ([2]; R1.G1 cells): 0.08 nM | Emax [2, 7]: 101%

CC(C)C[C@@H](NC(=O)[C@@H](Cc1ccccc1)NC(=O)[C@H](N)Cc1ccccc1)C(=O)N[C@H](CNC(=N)N)C(=O)NC1(C(=O)O)CCN(C(=O)[C@@H](CNC(=N)N)NC(=O)[C@@H](CC(C)C)NC(=O)[C@@H](Cc2ccccc2)NC(=O)[C@H](N)Cc2ccccc2)CC1 [Compound 50] (H-[dF][dF][dL][dAgp][Api]([dAgp-dL-dF-dF])-OH)
EC50 ([2]; R1.G1 cells): 56.7 nM | Emax [2, 7]: 77%

CC(C)C[C@@H](NC(=O)[C@@H](Cc1ccccc1)NC(=O)[C@H](N)Cc1ccccc1)C(=O)N[C@H](CCCNC(C)C)C(=O)NC1(C(=O)O)CCN(C(=O)[C@@H](CCCNC(C)C)NC(=O)[C@@H](CC(C)C)NC(=O)[C@@H](Cc2ccccc2)NC(=O)[C@H](N)Cc2ccccc2)CC1 [Compound 49]
Emax [2, 7]: 50%

CC(C)C[C@@H](NC(=O)[C@@H](Cc1ccccc1)NC(=O)[C@H](N)Cc1ccccc1)C(=O)N[C@H](CCCN)C(=O)N[C@@H]1CN[C@H](C(=O)O)C1 [Compound 5, D-Phe-D-Phe-D-Leu-D-Orn-[(2S,4S)-4-Amino-pyrrolidine-2-carboxylic acid]-OH]
mKOR Efficacy(%) ([2]; R1.G1 cells): 96%

CC(C)C[C@@H](N)C(=O)N[C@H](CCCN)C(=O)N[C@@H](CCCCNC(=O)[C@@H](CCCN)NC(=O)[C@@H](CC(C)C)NC(=O)[C@@H](Cc1ccccc1)NC(=O)[C@H](N)Cc1ccccc1)C(=O)O [Compound 39, D-Phe-D-Phe-D-Leu-D-Orn-[eLys(D-Orn-D-Leu-H)]-OH]
pEC50 ([2]; R1.G1 cells): 7.17 | Emax [2, 5]: 35%

CNCCC[C@@H](NC(=O)[C@@H](CC(C)C)NC(=O)[C@@H](Cc1ccccc1)NC(=O)[C@H](N)Cc1ccccc1)C(=O)N1CCCN(C(=N)N)CC1 [Compound 21, D-Phe-D-Phe-D-Leu-(δ-Me)D-Orn-[4-Amidinohomopiperazine amide]]
mKOR Efficacy(%) ([2]; R1.G1 cells): 97%

CC(C)C[C@@H](NC(=O)[C@@H](Cc1ccccc1)NC(=O)[C@H](N)Cc1ccccc1)C(=O)N[C@H](CCCN)C(=O)NCCCC[C@@H](NC(=O)[C@@H](CCCN)NC(=O)[C@@H](CC(C)C)NC(=O)[C@@H](Cc1ccccc1)NC(=O)[C@H](N)Cc1ccccc1)C(=O)O [Compound 48] (H-[dF][dF][dL][dOrn][dK]([dOrn-dL-dF-dF])-OH)
EC50 ([2]; R1.G1 cells): 0.34 nM | Emax [2, 7]: 85%

CC(C)C[C@@H](N)C(=O)N[C@H](CCCN)C(=O)N[C@H](CCCCNC(=O)[C@@H](CCCN)NC(=O)[C@@H](CC(C)C)NC(=O)[C@@H](Cc1ccccc1)NC(=O)[C@H](N)Cc1ccccc1)C(=O)O [Compound 46]
pEC50 ([2]; R1.G1 cells): 9.92 | Emax [2, 5]: 95%

CC(C)C[C@@H](NC(=O)[C@@H](Cc1ccccc1)NC(=O)[C@H](N)Cc1ccccc1)C(=O)N[C@H](CCCN)C(=O)NC1CCN(CC(N)=O)CC1 [Compound 15, D-Phe-D-Phe-D-Leu-D-Orn-[4-Amino-1-carboxymethyl-piperidine]-NH2]
mKOR Efficacy(%) ([2]; R1.G1 cells): 93%

CC(C)C[C@@H](NC(=O)[C@@H](Cc1ccccc1)NC(=O)[C@H](N)Cc1ccccc1)C(=O)N[C@H](CCCNC(C)C)C(=O)N1CCCNCC1 [Compound 24, D-Phe-D-Phe-D-Leu-(6-iPr)D-Orn-[homopiperazine amide]]
mKOR Efficacy(%) ([2]; R1.G1 cells): 96%

From patent publication US20140357579A1, “SYNTHETIC PEPTIDE AMIDES AND DIMERS THEREOF” (priority 2006, published 2014)
